Consider two compounds from ChEMBL document CHEMBL1134738, “Alpha-ketoester-based photobiological switches: synthesis, peptide chain extension and assay against alpha-chymotrypsin” (Bioorg Med Chem Lett, 2001).

Experiment [1] concerns the target T1, Chymotrypsinogen A (Bos taurus, UniProt P00766). Description: Inhibition constant for inhibition of alpha-chymotrypsin by the UV light.
Experiment [2] addresses T1, Chymotrypsinogen A. Description: Inhibition constant for inhibition of alpha-chymotrypsin by the ambient light.

For the compound `COC(=O)C(=O)[C@H](Cc1ccccc1)NC(=O)OCc1ccc(/N=N/c2ccccc2)cc1`, the Ki at Chymotrypsinogen A [1] was determined as 0.29 µM; at Chymotrypsinogen A [2], 0.77 µM.
Turning to `COC(=O)C(=O)[C@H](Cc1ccccc1)NC(=O)c1ccc(/N=N/c2ccccc2)cc1`, the figures for the Ki on Chymotrypsinogen A [1] and at Chymotrypsinogen A [2] were 0.13 µM and 0.24 µM, respectively.
